From patent publication US9169259B2, “Imidazopyridazine compounds” (Hoffmann-La Roche Inc., priority 2011, dated 2015) come the findings set out here.

Structures can show the parent of a compound that is named as a salt.

This assay concerns the target recombinant human SYK360-635 (Homo sapiens (Human), UniProt P43405). The experiment in a line: SYK kinase assay (33P ATP filtration, IC50 of SYK inhibition). It counts as biochemical. Conditions: truncated SYK aa 360-635 0.5 nM, ATP 20 μM, peptide 5 μM, 30° C. 15 min; read-out: ENZYME_FILTRATION_IC50. The method, then: Determination of IC50 of Spleen Tyrosine Kinase (SYK) Inhibition:
SYK kinase assay is a standard kinase assay adapted to a 96 well plate format. This assay is performed in 96-well format for IC50 determination with […] which represented 10 half log dilutions and a 40 μL reaction volume. The assay measures the incorporation of radiolabeled ^33P γATP into an N-terminally biotinylated peptide substrate, derived from naturally occurring phosphoacceptor consensus sequence (Biotin-11aa DY*E). Phosphorylated products were detected upon termination of reactions with EDTA and the addition of Streptavidin coated beads.
Assay plates: 96-well MultiScreen 0.65 um filter plates (Millipore Cat. No.: MADVNOB10)
final concentration: 50 mM HEPES pH7.5
BSA: Bovine Serum Albumin Fraction V, fatty acid free (Roche Diagnostics GmbH, Cat. No. 9100221) diluted to a final concentration of 0.1%
Assay Dilution Buffer (ADB): 50 mM HEPES, 0.1 mM EGTA, 0.1 mM Na Vanadate, 0.1 mM β-glycerophosphate, 10 mM MgCl2, 1 mM DTT, 0.1% BSA, pH 7.5
Bead wash buffer: 10 g/L PBS (Phosphate buffered saline) with 2M NaCl+1% phosphoric acid.
DMSO and the mixture was incubated for 10 min at RT.
The kinase reaction was initiated by the addition of 10 μL 4× substrate cocktail containing the DYE peptide substrate [0 or 5 μM], ATP [20 μM] and ^33PγATP [2 μCi/r×n]. After incubation at 30° C. for 15 min, the reaction was terminated by the transfer of 25 μL of the reaction sample to a 96 well 0.65 μm Millipore MADVNOB membrane/plate containing 200 μL 5 mM EDTA and 20% Streptavidine coated beads in PBS.
After the last wash membrane/plates were transferred to an adaptor plate, heat dried for 15 min at 60° C., and 50 μL scintillation cocktail was added to each well and 4 h later the amount of radioactivity was counted in a top counter.
For the compound `CC1CCCN1c1cccc(Nc2cc(-c3cccc(C(=O)NCCN(C)C)c3)nn3ccnc23)n1` (stereo not drawn) [Example I-46, N-(2-Dimethylamino-ethyl)-3-{8-[6-(2-methyl-pyrrolidin-1-yl)-pyridin-2-ylamino]-imidazo[1,2-b]pyridazin-6-yl}-benzamide], the IC50 was determined as 141 nM.
To `Cc1ccccc1-c1cc(Nc2cccc(N3CCCC3C)n2)c2nccn2n1` (stereo not drawn) [Example I-47, [6-(2-Methyl-pyrrolidin-1-yl)-pyridin-2-yl]-(6-o-tolyl-imidazo[1,2-b]pyridazin-8-yl)-amine] belongs 159 nM; to `CC1CCCN1c1cccc(Nc2cc(-c3ccccc3C(F)(F)F)nn3ccnc23)n1` (stereo not drawn) [Example I-48, [6-(2-Methyl-pyrrolidin-1-yl)-pyridin-2-yl]-[6-(2-trifluoromethyl-phenyl)-imidazo[1,2-b]pyridazin-8-yl]-amine hydrochloride], 410 nM.
To `C[C@H]1CCCN1c1cccc(Nc2cc(-c3ccc4ncsc4c3)nn3ccnc23)n1` [Example I-52, (6-Benzothiazol-6-yl-imidazo[1,2-b]pyridazin-8-yl)-[6-((S)-2-methyl-pyrrolidin-1-yl)-pyridin-2-yl]-amine] belongs 36.1 nM.
The value for `COc1ccc(Nc2cc(-c3cccc(C(=O)Nc4ccc5c(c4)CNC5=O)c3)nn3ccnc23)nc1OC` [Example I-56, 3-[8-(5,6-Dimethoxy-pyridin-2-ylamino)-imidazo[1,2-b]pyridazin-6-yl]-N-(1-oxo-2,3-dihydro-1H-isoindol-5-yl)-benzamide] was 593 nM.
On to `COc1cc(NC(=O)c2cccc(-c3cc(Nc4ccc(OC)c(OC)n4)c4nccn4n3)c2)ccc1C(=O)O` [Example I-57, 4-{3-[8-(5,6-Dimethoxy-pyridin-2-ylamino)-imidazo[1,2-b]pyridazin-6-yl]-benzoylamino}-2-methoxy-benzoic acid], for which the IC50 was found to be 1.55 nM.
`CC1(C)CCN(c2cccc(Nc3cc(-c4cccc(C(=O)O)c4)nn4ccnc34)n2)C1` [Example I-59, 3-{8-[6-(3,3-Dimethyl-pyrrolidin-1-yl)-pyridin-2-ylamino]-imidazo[1,2-b]pyridazin-6-yl}-benzoic acid]: the IC50 was 599 nM.
As for `CC1CCC(C)N1c1cccc(Nc2cc(-c3cccc(C(=O)O)c3)nn3ccnc23)n1` (stereo not drawn) [Example I-60, 3-{8-[6-(2,5-Dimethyl-pyrrolidin-1-yl)-pyridin-2-ylamino]-imidazo[1,2-b]pyridazin-6-yl}-benzoic acid], the IC50 worked out at 231 nM.
To `CC1(C)CCN(c2cccc(Nc3cc(-c4cccc(C(=O)O)c4)nn4ccnc34)n2)CC1` [Example I-61, 3-[8-(4,4-Dimethyl-3,4,5,6-tetrahydro-2H-[1,2′]bipyridinyl-6′-ylamino)-imidazo[1,2-b]pyridazin-6-yl]-benzoic acid] belongs 1380 nM; to `COc1ccc(-c2cc(Nc3cccc(N4CCCC4C)n3)c3nccn3n2)cc1OC` (stereo not drawn) [Example I-62, [6-(3,4-Dimethoxy-phenyl)-imidazo[1,2-b]pyridazin-8-yl]-[6-(2-methyl-pyrrolidin-1-yl)-pyridin-2-yl]-amine], 306 nM.
To `CC(=O)N1CCc2ccc(-c3cc(Nc4cccc(N5CCCC5C)n4)c4nccn4n3)cc2C1` (stereo not drawn) [Example I-64, 1-(7-{8-[6-(2-Methyl-pyrrolidin-1-yl)-pyridin-2-ylamino]-imidazo[1,2-b]pyridazin-6-yl}-3,4-dihydro-1H-isoquinolin-2-yl)-ethanone] belongs 56.6 nM.
To `COC(=O)c1cccc(-c2cc(Nc3cccc(N4CCC(C(C)(C)C)C4)n3)c3nccn3n2)c1` (stereo not drawn) [Example I-65, 3-{8-[6-(3-tert-Butyl-pyrrolidin-1-yl)-pyridin-2-ylamino]-imidazo[1,2-b]pyridazin-6-yl}-benzoic acid methyl ester] belongs 1260 nM; to `CC(C)(C)C1CCN(c2cccc(Nc3cc(-c4cccc(C(=O)O)c4)nn4ccnc34)n2)C1` (stereo not drawn) [Example I-66, 3-{8-[6-(3-tert-Butyl-pyrrolidin-1-yl)-pyridin-2-ylamino]-imidazo[1,2-b]pyridazin-6-yl}-benzoic acid], 696 nM.
In the case of `CC(C)(C)C1CCN(c2cccc(Nc3cc(-c4cccc(C(N)=O)c4)nn4ccnc34)n2)C1` (stereo not drawn) [Example I-67, 3-{8-[6-(3-tert-Butyl-pyrrolidin-1-yl)-pyridin-2-ylamino]-imidazo[1,2-b]pyridazin-6-yl}-benzamide], the IC50 came out at 280 nM.
To `CC1CCCN1c1cccc(Nc2cc(-c3cccc(CN4CCCC4)c3)nn3ccnc23)n1` (stereo not drawn) [Example I-70, [6-(2-Methyl-pyrrolidin-1-yl)-pyridin-2-yl]-[6-(3-pyrrolidin-1-ylmethyl-phenyl)-imidazo[1,2-b]pyridazin-8-yl]-amine] belongs 60.8 nM; to `C[C@H]1CCCN1c1cccc(Nc2cc(-c3cccc(Cl)c3)nn3ccnc23)n1` [Example I-71, [6-(3-Chloro-phenyl)-imidazo[1,2-b]pyridazin-8-yl]-[6-((S)-2-methyl-pyrrolidin-1-yl)-pyridin-2-yl]-amine hydrochloride], 246 nM.
To `COc1ccc(Nc2cc(N3CCCC(NC(=O)c4ccc(C(=O)O)cc4)C3)nn3ccnc23)nc1OC` (stereo not drawn) [Example I-72, N-{1-[8-(5,6-Dimethoxy-pyridin-2-ylamino)-imidazo[1,2-b]pyridazin-6-yl]-piperidin-3-yl}-terephthalamic acid] belongs 2.2 nM; to `COc1ccc(Nc2cc(N3CCCC(C(=O)Nc4ccc(C(=O)O)cc4)C3)nn3ccnc23)nc1OC` (stereo not drawn) [Example I-74, 4-({1-[8-(5,6-Dimethoxy-pyridin-2-ylamino)-imidazo[1,2-b]pyridazin-6-yl]-piperidine-3-carbonyl}-amino)-benzoic acid], 14.9 nM.
To `COc1ccc(Nc2cc(N3CCC(C(=O)Nc4ccc(C(=O)O)cc4)C3)nn3ccnc23)nc1OC` (stereo not drawn) [Example I-75, 4-({1-[8-(5,6-Dimethoxy-pyridin-2-ylamino)-imidazo[1,2-b]pyridazin-6-yl]-pyrrolidine-3-carbonyl}-amino)-benzoic acid] belongs 461 nM; to `COc1ccc(Nc2cc(N3CCC(NC(=O)c4ccc(C(=O)O)cc4)C3)nn3ccnc23)nc1OC` (stereo not drawn) [Example I-76, N-{1-[8-(5,6-Dimethoxy-pyridin-2-ylamino)-imidazo[1,2-b]pyridazin-6-yl]-pyrrolidin-3-yl}-terephthalamic acid], 42.1 nM; to `CC1CCCN1c1cccc(Nc2cc(-c3ccc(O)cc3)nn3ccnc23)n1` (stereo not drawn) [Example I-77, 4-{8-[6-(2-Methyl-pyrrolidin-1-yl)-pyridin-2-ylamino]-imidazo[1,2-b]pyridazin-6-yl}-phenol], 63.9 nM.
For `CC1CCCN1c1cccc(Nc2cc(-c3cccnc3)nn3ccnc23)n1` (stereo not drawn) [Example I-78, [6-(2-Methyl-pyrrolidin-1-yl)-pyridin-2-yl]-(6-pyridin-3-yl-imidazo[1,2-b]pyridazin-8-yl)-amine], the IC50 came to 65.2 nM.
The value for `CC1CCCN1c1cccc(Nc2cc(-c3ccc(F)cc3)nn3ccnc23)n1` (stereo not drawn) [Example I-79, [6-(4-Fluoro-phenyl)-imidazo[1,2-b]pyridazin-8-yl]-[6-(2-methyl-pyrrolidin-1-yl)-pyridin-2-yl]-amine] was 488 nM; that for `CC1CCCN1c1cccc(Nc2cc(-c3cccc(C#N)c3)nn3ccnc23)n1` (stereo not drawn) [Example I-80, 3-{8-[6-(2-Methyl-pyrrolidin-1-yl)-pyridin-2-ylamino]-imidazo[1,2-b]pyridazin-6-yl}-benzonitrile] was 614 nM.
